# Data taken from US20250222120A1, “SYNTHESIS OF NOVEL SMALL MOLECULE CARM1 DEGRADERS, COMPOUNDS FORMED THEREBY, AND PHARMACEUTICAL COMPOSITIONS CONTAINING THEM” (Wisconsin Alumni Research Foundation, priority 2024, published 2025).
# Key:
# CARM1 = target: T1, CARM1 (Homo sapiens, UniProt Q86X55); test: CARM1 degradation by western blot in MCF7 cells; type: cell-based; parameters: Cell lysates were collected and the CARM1 levels were detected by western blots; endogenous in cells; host or cells: MCF7
# T1 sequence (Q86X55 1-608): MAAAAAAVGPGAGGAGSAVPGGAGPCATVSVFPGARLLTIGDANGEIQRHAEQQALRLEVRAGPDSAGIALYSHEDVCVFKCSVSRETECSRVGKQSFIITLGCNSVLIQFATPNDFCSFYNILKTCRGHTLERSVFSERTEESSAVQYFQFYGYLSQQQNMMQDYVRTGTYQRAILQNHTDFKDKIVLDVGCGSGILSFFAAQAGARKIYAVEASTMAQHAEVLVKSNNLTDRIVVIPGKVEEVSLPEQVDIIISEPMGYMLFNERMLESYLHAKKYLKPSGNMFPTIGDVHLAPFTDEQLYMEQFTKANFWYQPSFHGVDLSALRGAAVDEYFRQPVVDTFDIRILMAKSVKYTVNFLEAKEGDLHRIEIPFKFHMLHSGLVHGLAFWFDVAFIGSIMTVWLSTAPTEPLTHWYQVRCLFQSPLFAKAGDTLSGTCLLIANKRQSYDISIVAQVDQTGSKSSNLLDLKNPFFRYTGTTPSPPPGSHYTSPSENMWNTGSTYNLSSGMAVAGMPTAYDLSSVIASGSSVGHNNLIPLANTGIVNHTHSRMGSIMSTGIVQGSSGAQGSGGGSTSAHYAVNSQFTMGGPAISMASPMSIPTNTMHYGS
# Method: Based on the structure of TPVC3, CARM1 degraders with stable and flexible alkyl linkages 2a-e were designed and synthesized. Degrader 2b bears the same linker length as TPVC3, while 2a has one less carbon. However, we also changed the hydrolytic labile C═N double bond, which is part of the acylhydrazone motif, in TPVC3 to a C—C bond in compound 2b. This change may influence the required optimal linker length. […] Western blot assays were performed to evaluate the CARM1 degradation activity of the compounds after treating MCF7 cells with these degraders at two concentrations (0.5 and 1.0 μM) for 24 h. […] It has one less carbon atom than 2a in terms of length. […] It has the same linker length as 2d.
# The treatment dose and time were determined based on time-course and dose titration experiments (FIG. 4B-4C).
# Western Blot Assay. Cells were harvested and washed with Dulbecco's phosphate-buffered saline (PBS), then lysed with 1×RIPA lysis buffer (50 mM Tris pH 7.5, 150 mM NaCl, 1% NP-40, 0.5% sodium deoxycholate, and 0.1% sodium dodecyl sulfate) supplemented with 1 mM phenylmethylsulfonyl fluoride, 10 μg/mL aprotinin, 1 μM leupeptin, and 10 μg/mL pepstatin on ice for 20 min. The supernatant was collected after spinning down at 15000 RPM at 4 degrees Celsius for 10 min. The concentration of whole lysates was quantified using a Bradford assay. 50-75 μg of cell lysates was boiled in 4× Laemmli Loading Dye and boiled at 100 degrees Celsius for 10 min. 25 μg were run in 8% SDS-PAGE gels and transferred to nitrocellulose membranes. Blots were blocked in 5% skim milk in PBST [PBS and 0.1% Tween 20] for 45 min, then incubated with primary antibodies at 4 degrees Celsius overnight. Blots were washed in PBST for 30 min, then incubated with horseradish peroxidase-linked secondary antibodies (Jackson ImmunoResearch) for 1 hr. Afterwards, blots were washed in PBST for 15-30 min, then treated with chemiluminescent ECL reagent and imaged with the ChemiDoc Imaging System (Bio-Rad) or Azure 600 (Azure Biosystems). Expression levels of the indicated proteins were probed by the following antibodies: anti-CARM1, anti-me-BAF155, anti-me-PABP1, anti-PABP1,^7 anti-BAF155 (D7F8S, Cell Signaling Technology), anti-PRMT1 (Bethyl), anti-PRMT6 (D-5, Santa Cruz Biotechnology), anti-β-Actin (ABclonal Technology, Sigma-Aldrich), anti-Hsp90 (H-114, Santa Cruz Biotechnology).
# MCF7 cells = test: Global quantitative proteomic analysis of MCF7 cells by mass spectrometry; type: cell-based, Homo sapiens; conditions: 25 nM, 4 h, two-fold cutoff, p-value ≤0.05, 3491 proteins quantified
# Method: Sample preparation for global proteomics analysis. Sample preparation is similar to the previous report (Ma et al. “Strategy Based on Deglycosylation, Multiprotease, and Hydrophilic Interaction Chromatography for Large-Scale Profiling of Protein Methylation” Anal. Chem. 2017, 89 (23), 12909-12917). Briefly, treated MCF7 cells were harvested by washing with PBS buffer (Gibco, pH 7.4) and lysed in RIPA buffer supplemented with protease inhibitors for 20 min, then protein concentration was determined using a BCA Protein Assay Kit (Thermo Pierce, Rockford, IL) per manufacturer instructions. […] The concentrations of the peptide mixture were measured by peptide assay (Thermo Fisher Scientific). […]
# LC-MS/MS data acquisition. Samples were analyzed on an Orbitrap Fusion Lumos Tribrid mass spectrometer (Thermo Fisher Scientific) coupled to a Dionex UltiMate 3000 UPLC system. […]
# Data analysis. Protein identification and quantification by MaxQuant (version 1.5.3.8) based database searching, using the integrated Andromeda search engine with FDR <1% at peptide and protein levels. […] For label-free protein quantification (LFQ), the MaxQuant LFQ algorithm was used to quantitate the MS signals, and the proteins' intensities were represented in LFQintesnit (Schaab et al. “Analysis of High Accuracy, Quantitative Proteomics Data in the MaxQB Database” Mol. Cell. Proteomics 2012, 11 (3), M111.014068). […]
# BAF155 me2a [1] = test: BAF155 me2a level in MDA-MB-231 cells, western blot; type: cell-based; conditions: 10 μM, after 48 h
# From the text: (§1) FIGS. 7A-7F. […] Cell lysates were collected and CARM1, methyl-BAF155, total BAF155, methyl-PABP1, and total PABP1 levels were detected by Western blot. […] Cell lysates were collected and CARM1, methyl-BAF155, total BAF155 levels were detected by Western blot. […] Cell proliferation rate normalized to day 0 was plotted. […] Migrated cells were stained with 1% crystal violet and the percentage of migrated cells were plotted. Data mean±s.d. ***. P≤0.001.
# (§2) Western Blot Assay. Cells were harvested and washed with Dulbecco's phosphate-buffered saline (PBS), then lysed with 1×RIPA lysis buffer (50 mM Tris pH 7.5, 150 mM NaCl, 1% NP-40, 0.5% sodium deoxycholate, and 0.1% sodium dodecyl sulfate) supplemented with 1 mM phenylmethylsulfonyl fluoride, 10 μg/mL aprotinin, 1 μM leupeptin, and 10 μg/mL pepstatin on ice for 20 min. The supernatant was collected after spinning down at 15000 RPM at 4 degrees Celsius for 10 min. The concentration of whole lysates was quantified using a Bradford assay. 50-75 μg of cell lysates was boiled in 4× Laemmli Loading Dye and boiled at 100 degrees Celsius for 10 min. 25 μg were run in 8% SDS-PAGE gels and transferred to nitrocellulose membranes. Blots were blocked in 5% skim milk in PBST [PBS and 0.1% Tween 20] for 45 min, then incubated with primary antibodies at 4 degrees Celsius overnight. […]
# BAF155 me2a [2] = test: BAF155 me2a level in BT474 cells, western blot; type: cell-based; conditions: 10 μM, after 48 h
# From the text: as §1, §2
# MDA-MB-231 cells = test: Transwell migration assay, MDA-MB-231 cells; type: cell-based; conditions: 10 μM, transwell, 20 h
# Method: Transwell Migration Assay. Cells were harvested and washed in serum-free DMEM. The wells of a 24-well plate were filled with 800 μL of DMEM with 10% FBS. Transwell inserts with […] pore size were then added to the wells with DMEM. Cells were resuspended in serum-free DMEM, then 1×10^5 cells in 200 μL were added to the upper chambers. Drug treatments were added to the lower chambers, then incubated for 20 h at 37° C. The cells on the upper surface were removed with cotton swabs. Migratory cells were fixed in 3.7% formaldehyde at room temperature, followed by 100% methanol at −20° C. Fixed cells were stained with 1% crystal violet in 20% methanol for 30 min. The migration area was quantified from five independent fields of view of the lower surface of the membrane under a microscope.
SMILES,CARM1 degradation by negative control (CARM1),Number of significantly changed proteins compared to the DMSO group (MCF7 cells),BAF155 me2a level (BAF155 me2a [1]),BAF155 me2a level (BAF155 me2a [2]),Cell migration (MDA-MB-231 cells)
"COCCN1CCC(c2cc(CN(C)C(=O)c3cccc(Oc4ccc(OCC(=O)N5CCC(CN6CCC(CN7CCN(CC(=O)N[C@H](C(=O)N8C[C@H](O)C[C@H]8C(=O)N[C@@H](C)c8ccc(-c9scnc9C)cc8)C(C)(C)C)CC7)CC6)CC5)cc4)c3)ccn2)CC1 [Compound 3bN, (2S,4R)-4-hydroxy-1-((S)-2-(2-(4-((1-((1-(2-(4-(3-(((2-(1-(2-methoxyethyl)piperidin-4-yl)pyridin-4-yl)methyl)(methyl)carbamoyl)phenoxy)phenoxy)acetyl)piperidin-4-yl)methyl)piperidin-4-yl)methyl)piperazin-1-yl)acetamido)-3,3-dimethylbutanoyl)-N—((S)-1-(4-(4-methylthiazol-5-yl)phenyl)ethyl)pyrrolidine-2-carboxamide]",No CARM1 degradation was observed,45,,,
"CNCCN1CCC(c2cc(CN(C)C(=O)c3cccc(Oc4ccccc4)c3)ccn2)CC1 [TP-064, reference compound]",,,decrease of BAF155 me2a level was observed,decrease of BAF155 me2a level was observed,inhibited cell migration at a similar level
